{"source": "patent US5874583A", "about": "“2,3-dihydro-1H-isoindole derivatives” (Hoechst Marion Roussel Inc., priority 1997, dated 1999)", "note": "Counter-ions that a name gives are not always drawn."}
{"tested_on": "serotonin (5-hydroxytryptamine (5HT)) uptake", "test": "[3H]-Serotonin uptake in rat whole brain and hypothalamic synaptosomes", "format": "biochemical", "details": "[3H]-5HT 50 nM, 37° C., 5 minutes", "protocol": "[^3 H]-Serotonin Uptake in Rat Whole Brain and Hypothalamic Synaptosomes\nThis activity is determined in an assay which measures [^3 H]-serotoninuptake in rat whole brain and hypothalamic synaptosomes. The assay described below is used as a biochemical screen for potential antidepressants which block serotonin (5-hydroxytryptamine (5HT)) uptake.\nMale CR Wistar rats (100-125 g)\n1. Krebs-Henseleit Bicarbonate Buffer, pH 7.4 (KHBB):\nThe batch is aerated for 60 minutes with 95% 02 /5% CO2, the pH is checked to insure it is at 7.4±0.1, then add bovine serum albumin (Sigma cat# A-7906) 1 mg/ml.\n3. Sucrose solution: 0.32M sucrose containing 5 mM HEPES and 0.1 mM EDTA; pH to 7.3 using Tris base.\n4. A 0.1 mM stock solution of serotonin creatinine SO4 is made up in 0.01N HCl. This is used to dilute the specific activity of the radiolabeled 5HT.\nThe final desired concentration of [^3 H]-5HT in the assay is 50 nM. The dilution factor is 0.8. The KHBB is made up to contain 62.5 nM of [^3 H]-5HT.\n6. For most assays, a 0.5 mM stock solution of the test compound is made up initially in either 10 μl of glacial acetic acid, 100 μl DMSO or 10 μl of the recrystallization solvent, to which is added approximately 10 ml of distilled water. Compounds are initially screened in duplicate at 3 concentrations (10^-8, 10^-7 and 10^-6 M) made up in water.\nThe Percoll method for preparing synaptosomes has been modified from Nagy, A., Delgado-Escueta, A. V. J. Neurochem. 43, 1114 (1984) and Dunkley, P. R., Jarvie, R. E., Heath, J. W., Kidd, G. J., Rostas, J. A. P. Brain Research 372, 115 (1986). Male Wistar rats are decapitated and the brain rapidly removed. Whole brain (minus cerebellum) is weighed and homogenized in 15 volumes of ice cold Sucrose solution using a Potter-Elvejhem homogenizer. The following procedures are performed on ice. Homogenization should be done with 4-5 up and down strokes at medium speeds (setting 4.5 to 5) to minimize synaptosome lysis. The homogenate is centrifuged at 1000 g (3000 rpm, Sorvall SS-34 rotor) for 10 minutes at 0°-4° C.\nThe Percoll gradient tubes are carefully placed into a Beckman SW-28 swinging bucket rotor and spun in a Beckman XL90 ultracentrifuge using the following program: speed, 11,000 rpm (15,000 g) for 30 minutes at 4° C.; slow acceleration and deceleration (acceleration setting 9; deceleration setting 3). Tubes are carefully removed, and the top layer and the top part of the middle (red) layer are discarded using a pasteur pipette. The synaptosomes are located in the white fluffy band at the interface between the 10% and 21% Percoll layers. This is carefully removed, placed in a centrifuge tube, diluted with KHBB and spun at 21,000 g (13,000 rpm, Sorvall SS-34 rotor). The pellet (synaptosomes) is resuspended in KHBB (10 vol per gram original brain wet weight; 1 brain minus cerebellum weighs approximately 1.2 g; 2.5 brains are needed per typical assay).\n200 μl of the tissue suspension are added to each of 24 tubes (at a time) containing the 20 μl of vehicle or drug on ice. Three minutes later, 800 μl of KHBB containing [^3 H]-5HT are added, and the tubes are vortexed. The rack containing the 24 tubes is moved from the ice bath to a water bath set at 37° C. The tubes are incubated for 5 minutes under 95% O2 /5% CO2.", "units": {"IC50": "µM"}}
{"smiles": "CCCC1c2ccccc2CN1c1ccncc1", "note": "(centres unmarked) [2,3-Dihydro-1-Propyl-2-(4-Pyridyl)-1H-Isoindole Maleate]", "IC50": 0.725}
{"smiles": "CCC1c2ccccc2CN1c1ccncc1", "note": "(centres unmarked) [2,3-Dihydro-1-Ethyl-2-(4-Pyridyl)-1H-Isoindole Maleate]", "IC50": 1.14}
{"smiles": "CC(C)CC1c2ccccc2CN1c1ccncc1", "note": "(centres unmarked) [2,3-dihydro-1-(2-methylpropyl)-2-(4-pyridyl)-1H-isoindole maleate]", "IC50": 0.849}
{"smiles": "c1ccc2c(c1)CN(c1ccncc1)C2", "note": "[2,3-Dihydro-2-(4-Pyridyl)-1H-Isoindole Maleate]", "IC50": 0.88}
{"smiles": "CC1c2ccccc2CN1c1ccncc1", "note": "(centres unmarked) [2,3-Dihydro-1-Methyl-2-(4-Pyridyl)-1H-Isoindole Fumarate]", "IC50": 0.736}
